Data published in patent US9932300B2, “N,N′-diarylurea compounds and N,N′-diarylthiourea compounds as inhibitors of translation initiation” (President and Fellows of Harvard College, priority 2009, dated 2018).

System: eIF2-GTP-Met-tRNAi ternary complex
Assay: Ternary complex assay (dual luciferase, firefly/renilla ratio) in stable KLN-tTA/pBISA-DL(ATF-4) cells; HTS and hit confirmation
Assay type: cell-based, mouse
Design: Activity 10 uM / Activity 2.5 uM / Activity 5 uM: unit not given here
Settings: confirmed hits of the screen (Table 5); for Activity 5 uM: compound at 5 uM; for Activity 10 uM: compound at 10 uM; for Activity 2.5 uM: compound at 2.5 uM
Source text: For assay development, a bi-directional plasmid was designed in which a common promoter/enhancer complex drives the transcription of firefly luciferase (F-luc) ORF fused to the 5′ untranslated region (UTR) of ATF-4, and of the renilla luciferase (R-luc) ORF fused to a 90-nucleotide 5′ UTR derived from the plasmid (FIG. 6A). Because the tetracycline-regulated transactivator ((tTA), required for driving transcription from this vector) is not normally expressed in the mammalian cells, stable KLN cancer cells were constructed that expressed tTA (KLN-tTA).
The KLN-tTA colonies that drove expression of reporter genes from pBISA-DL plasmid were selected by transient transfection and dual luciferase assay. One of these KLN-tTA cell lines was transfected with the pBISA-DL^(ATF-4) expression vector, stable colonies were selected by dual luciferase assay and expanded. To determine if reduced availability of the eIF2*GTP*Met-tRNAi ternary complex increased the translation of firefly luciferase and decreased translation of renilla luciferase, selected KLN-tTA/pBISA-DL^(AFT-4) colonies were treated with thapsigargin (TG) or tunicamycin (TU), two agents known to cause phosphorylation of eIF2α.
This assay was then adapted for high throughput screening in 96 and 384 well plates. This was done by evaluating the cell density, length of exposure to compounds, DMSO tolerance and optimum firefly and renilla substrate. We then challenged these cells with thapsigargin or DMSO. […] Cell-based assays usually have higher variation than homogeneous in vitro assays due to position effect in the plate, and other variables associated with handling of cells and the plates.
Screening was conducted in 384 well white opaque plates (Nalge Nunc), 100 μl volume RPMI+10% fetal bovine serum. Cells were plated at the sub-confluent density of 10,000 cells/well, and allowed to attach for a period of 16-18 hours at 37° C., 5% CO2. Compounds were added as 1 μl of a 1 mM DMSO stock solution for a final screening concentration of 10 μM, using low-volume tips for transfer (Molecular Bioproducts). Cells were then incubated in the presence of compound for an additional sixteen hours, again at 37° C., 5% CO2. Following incubation 70 μl of the culture medium was removed from each well to allow for reagent addition and plates were allowed to equilibrate to room temperature for thirty minutes. Firefly luciferase reporter activity was then read by the addition of thirty microliters of Dual Glo Luciferase reagent (Promega), followed by one hour incubation at room temperature to allow for adequate signal buildup. Luminescence counting was conducted on a Microbeta Trilux using a 1 second read time. Renilla luciferase reporter activity was measured following addition of 30 μl Stop and Glo Luciferase reagent (Promega) and incubation identical to the one carried out for the firefly luciferase one.
Compound scores were interpreted as firefly luciferase activity divided by renilla luciferase activity, normalized to the plate's DMSO control. […] All data analysis was conducted using the BioAssay HTS software package (CambridgeSoft).
102,709 compounds in the NCI Open Chemical Repository were then screened using this HTS assay. […] Initial hits were confirmed by repeating the same dual luciferase assay in 96 well plates. Briefly, 20,000 cells/well were plated in triplicate for each concentration (10, 5 and 2.5 μM) of the compounds.

SMILES	Activity 5 uM	Activity 10 uM	Activity 2.5 uM
ClCCN(CCCl)c1ccc(C(Cl)(c2ccc(N(CCCl)CCCl)cc2)c2ccc(N(CCCl)CCCl)cc2)cc1 [Compound 89864]	9.4	10.1	
Clc1ccccc1-c1ncc(-c2ccccc2)o1 [Compound 90299]		3.21	2.1
Clc1ccc(-c2ncc(-c3ccccc3)o2)c(Cl)c1 [Compound 90467]		3.88	2.6
Cc1cccc(-c2ncc(-c3ccccc3)o2)c1 [Compound 90777]	6.553	8.406	
CCC[N+]1=C(/C=C/c2cc(C)c3cccnc3c2O)C(C)(C)c2ccccc21 [Compound 91815]		15.17	3.3
CC1=C/C(=C\C=C2/N(C)c3c(C)cccc3C2(C)C)C(=O)c2ncccc21 [Compound 91816]		29.75	17.64
Cc1ccc(O)c(-n2nc3ccccc3n2)c1 [Compound 91885]	3.742	4.473	
O=C1c2ccccc2C(=O)c2c1ccc1c2[nH]c2ccccc21 [Compound 92938]		4.68	3.41
COc1ccc(-c2coc3cc(O)ccc3c2=O)cc1 [Compound 93360]	11.08	10.283	
Cc1cc2c(C)c3cccc[n+]3cc2c2ccccc12.[O-][Cl+3]([O-])([O-])[O-] [Compound 93861]	2.622	3.171	
Cc1cc(/C=N/Nc2ccc3ccccc3n2)c(O)c2ncccc12 [Compound 94029]	1.934	3.2135	
O=C(OC1CC2CC1C1CC=CC21)c1ccc([N+](=O)[O-])cc1 (centres unmarked) [Compound 94582]	17.83	17.458	
O=C(OC1CC2CC1C1CC3OC3C21)c1ccccc1 (centres unmarked) [Compound 94585]	3.148	3.525	
COc1ccc([N+](=O)[O-])c(C(OC(C)=O)OC(C)=O)c1OC(C)=O [Compound 95832]		3.2	0.46
ClCCN(CCCl)c1ccc(C2N(Cc3ccccc3)c3ccccc3N2Cc2ccccc2)cc1 [Compound 96306]	2.2	5.7	
CN(CCCl)c1ccc(C2N(Cc3ccccc3)c3ccccc3N2Cc2ccccc2)cc1 [Compound 96375]	2	5.9	
CN(C)c1ccc(/C=C/c2nc3ccccc3[nH]2)cc1 [Compound 96942]		7.54	4.17
CCCCCCCCCCCCCCCCCC[S+](C)CC.[I-] (centres unmarked) [Compound 97372]		4.98	1.62
Cl.Nc1cc2ccccc2c2c1ccc1ccccc12 [Compound 97681]		8.98	1.17
COc1ccc(C2(C)C(C#N)(C#N)C2(C#N)C#N)cc1 [Compound 98409]	10.997	25.659	
NP(Br)(c1ccccc1)(c1ccccc1)c1ccccc1 [Compound 99047]	14.82	13.186	
Oc1c(Cl)cc(Cl)cc1C1N(Cc2ccc(N(CCCl)CCCl)cc2)CCCN1Cc1ccc(N(CCCl)CCCl)cc1 [Compound 99639]		8.32	0.7
COc1ccc(C2=Cc3ccc(OC(C)=O)cc3OC2)cc1 [Compound 99696]	3.031	3.4275	
O=C(c1ccccc1)c1coc(-c2ccccc2)c1 [Compound 100239]	6.748	7.6705	
CCCCc1ccc2nc3cc4ccccc4cc3nc2c1 [Compound 100622]		3.12	2.25
COc1ccc(-c2cc3ccccc3[nH]2)cc1 [Compound 101082]	4.772	5.896	
Cc1ccc(-c2nc(-c3ccc(N=Cc4ccc(N(CCCl)CCCl)cc4C)cc3)cs2)cc1.Cl [Compound 101484]	2.4	3.4	

SMILES	Activity 5 uM	Activity 10 uM	Activity 2.5 uM
CCC(=O)Oc1c(Br)cc(C=O)cc1OC [Compound 101539]	14.033	6.8175	
C(=Nc1cnc2ccccc2c1)c1ccccn1 [Compound 101544]	2.767	3.1185	
CC(=O)OCC(OC(C)=O)C(OC(C)=O)C(/C=C/N=[N+]([O-])c1ccccc1)OC(C)=O (centres unmarked) [Compound 102003]		9.46	0.42
CC[CH2][Pb]([CH2]CC)([CH2]CC)[O]C(C)=O [Compound 102516]		3.4	
CC(=O)N(C)c1ccc(/C=C2\C=Cc3ccccc32)cc1 [Compound 103749]		5.25	2.76
COC1=C2C=[N+](C)C3C(=C2C=CC1OC)Cc1cc2c(cc13)OCO2.O=[N+](O)O (centres unmarked) [Compound 103755]	3.09	3.394	
Ic1ccc(/C=N/Nc2nnc(N/N=C/c3ccc(I)cc3)c3ccccc23)cc1 [Compound 103842]	2.6	3.3	
O=C(Nc1cccc(Cl)c1)Nc1cc(C(F)(F)F)ccc1Cl [Compound 104498]	6.367	8.4845	
NC(=S)N/N=C\c1ncnc2ccccc12 [Compound 104959]	5.19	5.474	
O=C1C(c2c[nH]c3ccccc23)=Nc2ccc(Br)cc21 [Compound 105326]			9.56
Nc1ccc(N=Nc2ccccc2Cl)c(N)n1 [Compound 106208]	1.8	4.3	
Cc1ccc2nn(-c3ccc(O)cc3)nc2c1 [Compound 106291]		3.15	2.7
CCc1ccc(N=Nc2ccc(N(C)C)cc2)cc1 [Compound 106343]	2.6	4.1	
CCc1ccc(N=Nc2ccccc2)cc1 [Compound 106344]	3.1	4.1	
CCc1ccc(N=Nc2ccc(Br)cc2)cc1 [Compound 106378]		3.69	2.55
Cc1ccc(N=NC2C(=O)c3ccccc3C2=O)cc1 [Compound 106656]		3.26	1.89
C[C@]12CC[C@@H]3c4ccc(Oc5nc(N6CC6)nc(N6CC6)n5)cc4CC[C@H]3[C@@H]1CCC2=O [Compound 106909]	1.2	3.4	
C=CC(C)(C)c1c(OC(C)=O)cc2oc3c(OC(C)=O)c(OC(C)=O)cc(CC=C(C)C)c3c(=O)c2c1O [Compound 107229]		3.14	1.06
COc1cccc(N=Nc2ccc(N(C)C)cc2)c1 [Compound 108310]		4.88	3.62
CC(C)(C)NC/C(=C\c1ccccc1)C(=O)c1ccccc1 [Compound 109156]	6.2	9.1	
CCN(CC)CCCNc1c2ccccc2nc2ccccc12.Cl.Cl [Compound 109326]		17.89	0.69
Cc1cc(N(C)C)cc(C)c1C(=Nc1ccc(N=C(NO)c2c(C)cc(N(C)C)cc2C)cc1)NO.Cl [Compound 109535]	3.9	6.3	
Clc1ccc(-c2cc(C3CO3)c3cc(Cl)cc(Cl)c3n2)cc1 (centres unmarked) [Compound 112369]	1.4	3.1	
c1ccc(-c2cc3ccccc3[nH]2)nc1 [Compound 112668]	2.854	3.3905	
CC(=O)Oc1cccc2cc3cc(C)cc(OC(C)=O)c3c(OC(C)=O)c12 [Compound 112921]		242.82	97.42
c1ccc2c(c1)cnc1cc3c(cc12)ncc1ccccc13 [Compound 113085]		5.05	3.18
